The structures appear in SMILES notation.

Series [1] is described as follows: Oral bioavailability test, dog. The settings on record: in vivo, 4 mg/kg dose. As for the experimental part: (§1) All PK experiments are standard tests that performed in either WuXi PharmaTech or Charels River Laboratory. 4315 and 4485 (Orin 1001) were dosed PO as a suspension in 1% microcellulose (Sigma) and 50% Sucrouse (Sigma).
For another series, the system named is RPMI 8226 tumor cells. The series can be described thus: Intratumoral XBP-1 spliced effect in Velcade treated RPMI xenografts. The class given is in vivo, Nude mice. The settings on record: Orin 1001 30 mg/kg PO on Day 27 in Velcade treated mice, tumor taken four hours later. As for the experimental part: The mice were treated again on the 24th day with Velcade®. On Day 27, the mice were treated with Orin 1001 at 30 mg/kg PO, four hours later the mice were sacrificed as in Example 25, and tumor tissues were isolated. In a similar way as described for the liver PD test in Example 25, RNA extraction and RT-PCR analysis gave the results as shown FIG. 13.
BALB/c mice were injected intraperitoneally with 100 microliters at an equivalent dose of 1 mg/kg tunicamycin solution. Two hours after tunicamycin injection, mice were dosed with compound of interest either PO or IV. Following 2 hours for PO delivery of compound, mice were euthanized according to IACUC protocols using CO2 from a […] source. A 1 cm^3 fragment of the liver for homogenization and extraction of the RNA were collected for further analysis. Total RNA is harvested from cells or tissue using TRIzol according to the manufacturer's procedures. After ethanol precipitation and resuspension of the RNA, RiboGreen (Invitrogen) is used to quantify the yield and normalize the RNA concentration in the source tube containing isolated RNA. RT-PCR is performed by Oligo(dT) priming, and SuperScript II (Invitrogen) transcription using the Amplitaq Gold Kit (Applied Biosystems) according to the manufacturer's protocols. […]

In series [2] the test system is human breast adenocarcinoma MDA-MB231 tumor cells. It counts as in vivo. As for the experimental part: Orin 1001 was administered by oral gavage in combination with paclitaxel in a xenograft mouse model using female NCr nu/nu mice (n=10 in each group) injected subcutaneously with human breast adenocarcinoma MDA-MB231 tumor cells. To evaluate the effect of Orin 1001 in combination with paclitaxel, Orin 1001 was administered via oral gavage at 75, 150 or 300 mg/kg/day in combination with paclitaxel at 10 mg/kg iv, weekly (n=10/group) for up to 60 days.

In another series the target is T1, IRE1α (Mus musculus, UniProt Q9EQY0).
T1 construct: from tissue; host or cells: liver of BALB/c mice (in vivo)
Kind of series: Liver PD screening assay: XBP-1 splicing analysis of liver after tunicamycin (Example 25). The class given is in vivo, BALB/c mice. To be noted: PO, 2 hours after tunicamycin 1 mg/kg ip, liver 2 hours after dosing, FIG. 23, read-out: ED50 (inhibition of XBP-1 splicing in liver). As for the experimental part: Example 25 was related to comparative PD/PK data of Orin 1001 VS compound 4315, as its structure shown below, which is an earlier lead of this series of compounds. Tunicamycin was used herein to activate IRE1, then Orin 1001 (also called 4485) or 4315 were given to inhibit the activating effect. […] Each gel panel represents one mouse liver sample as in the figure.
BALB/c mice were injected intraperitoneally with 100 microliters at an equivalent dose of 1 mg/kg tunicamycin solution. Two hours after tunicamycin injection, mice were dosed with compound of interest either PO or IV. Following 2 hours for PO delivery of compound, mice were euthanized according to IACUC protocols using CO2 from a […] source. A 1 cm^3 fragment of the liver for homogenization and extraction of the RNA were collected for further analysis. Total RNA is harvested from cells or tissue using TRIzol according to the manufacturer's procedures. After ethanol precipitation and resuspension of the RNA, RiboGreen (Invitrogen) is used to quantify the yield and normalize the RNA concentration in the source tube containing isolated RNA. RT-PCR is performed by Oligo(dT) priming, and SuperScript II (Invitrogen) transcription using the Amplitaq Gold Kit (Applied Biosystems) according to the manufacturer's protocols. Primers for human XBP-1 are 5_-[…]-3_ (forward, Seq ID No. 8) and 5_-[…]-3_ (reverse, Seq ID No. 9), and for mouse are 5_-[…]-3_ (forward, Seq ID No. 10) and 5_-[…]-3 (Seq ID No. 11). All DNA oligos were purchased from IDT DNA Technologies. PCR is run on a Bio-Rad PTC-100 96-well thermocycler with heating at 94° C. for 30 s, annealing at 58° C. for 30 s, and polymerizing at 72° C. for 30 s for 35 cycles. Reactions are run on 4% precast NuSieve gels from Cambrex and visualized by ethidium bromide staining and UV excitation.
as §1

Series [3] is described as follows: Oral bioavailability test, rat. The settings on record: in vivo, 10 mg/kg dose. As for the experimental part: as §1

T1 sequence (Q9EQY0 21-977): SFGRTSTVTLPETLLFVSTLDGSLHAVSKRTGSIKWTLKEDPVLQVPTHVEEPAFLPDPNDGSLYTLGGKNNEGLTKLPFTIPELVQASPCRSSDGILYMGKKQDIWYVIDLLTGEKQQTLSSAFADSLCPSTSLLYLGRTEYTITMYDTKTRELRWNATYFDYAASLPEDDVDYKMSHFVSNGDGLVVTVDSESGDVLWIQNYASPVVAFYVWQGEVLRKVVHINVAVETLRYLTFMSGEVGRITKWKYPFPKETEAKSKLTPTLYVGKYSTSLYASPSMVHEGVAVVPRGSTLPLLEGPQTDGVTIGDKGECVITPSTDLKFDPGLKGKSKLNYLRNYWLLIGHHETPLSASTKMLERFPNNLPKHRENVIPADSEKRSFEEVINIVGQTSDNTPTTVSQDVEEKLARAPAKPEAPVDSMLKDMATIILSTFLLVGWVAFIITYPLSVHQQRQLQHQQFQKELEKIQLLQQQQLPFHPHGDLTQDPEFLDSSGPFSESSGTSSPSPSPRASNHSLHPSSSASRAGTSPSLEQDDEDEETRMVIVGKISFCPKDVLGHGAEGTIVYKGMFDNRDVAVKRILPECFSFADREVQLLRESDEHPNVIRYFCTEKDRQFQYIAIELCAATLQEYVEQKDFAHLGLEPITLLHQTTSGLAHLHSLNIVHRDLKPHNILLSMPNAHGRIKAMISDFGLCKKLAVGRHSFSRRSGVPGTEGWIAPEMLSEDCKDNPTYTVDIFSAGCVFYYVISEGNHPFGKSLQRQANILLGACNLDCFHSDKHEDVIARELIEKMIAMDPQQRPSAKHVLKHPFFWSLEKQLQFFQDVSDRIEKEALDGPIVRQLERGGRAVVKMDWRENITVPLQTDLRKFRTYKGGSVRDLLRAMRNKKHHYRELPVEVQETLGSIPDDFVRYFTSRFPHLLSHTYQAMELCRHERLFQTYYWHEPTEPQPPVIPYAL

On to `COc1cc2c(C)c(CC(=O)N3CCOCC3)c(=O)oc2c(C=O)c1O` [Orin 1001], for which the values for the bioavailability in series [1] and in series [3] were 68.5% and 52%, respectively. The “inhibition of activated IRE1 (intratumoral XBP1s)” value in the series with RPMI 8226 tumor cells is listed as “can inhibit the activity of the activated IRE1”. The “clinical signs of toxicity” value in series [2] (75, 150 or 300 mg/kg/day oral gavage with paclitaxel 10 mg/kg iv weekly, up to 60 days) was “no clinical signs of toxicity”. The “tolerability of extended oral dosing” value in series [2] (up to 60 consecutive days) is reported as “well tolerated”. The ED50 – broadly, the dose at which the effect has come halfway, by size or by number of responders – on IRE1α is below 2 mg/kg.

The values are drawn from US20210260069A1, “IRE1a INHIBITOR IN COMBINATION WITH CANCER [sequence] AGENT FOR CANCER TREATMENT” (Fosun Orinove PharmaTech, Inc., priority 2018, published 2021).
